Test results from patent US20240390377A1, “COMPOSITION FOR THE PREVENTION OR TREATMENT OF NEURODEGENERATIVE OR MOTOR NEURON DISEASES COMPRISING HALOFUGINONE AS AN ACTIVE INGREDIENT” (CURAMYS CO., LTD., priority 2022, published 2024).

Columns and labels:
[1] = test system: G93A mutant SOD1 transgenic mice; experiment: Motor neuron cell count (ChAT) in lumbar spinal cord of ALS animal model; format: in vivo, mouse
Procedure: As a control group, non-transgenic mice were injected intraperitoneally (i.p.) with vehicle (DMSO) in the same manner for the same period of time.
Specifically, mice were sacrificed at various time points (90 days and 120 days) according to the clinical state of the mice of Example 6. Each mouse was transdermally perfused with cold 4% paraformaldehyde (PFA) following cold PBS, and lumbar spinal cord was separated. Samples were post-fixed in 4% paraformaldehyde, treated in a cold 30% sucrose solution, then freeze-protected, and then cross-sectional sections 14 μm thick were successively obtained. […] Motor neurons were quantified from ChAT-stained sections using a computer-assisted microscope (Olympus BX53) at 4× magnification, along with cellSens software. […] The fields analyzed were all ChAT+ profiles located in the ventral half of the immunostaining section clearly marked on the gray matter of each hemisphere.
In addition, to investigate the motor neuron source of the spinal cord, motor neurons of the lumbar spinal cord were observed and counted in the same manner as described in Example 9 (FIG. 9d), and real-time qRT-PCR and Western blot analysis were performed in the same manner as described in Example 11 and Example 12 to quantitatively analyze the expression of ChAT mRNA (FIG. 9e) and ChAT protein (FIG. 9f). […]

C2C12 cells = experiment: Immunocytochemical analysis of TGF-β1-stimulated C2C12 myoblasts; format: cell-based, mouse; conditions: low or high concentration halofuginone after TGF-β1 stimulation (FIG. 4c)
Procedure: Specifically, C2C12 cells were plated in 6-well plates with coverslips and stimulated with rhTGF-β1 in serum-free medium. After 24 hours of stimulation, the cells were treated with low or high concentrations of halofuginone in serum-free medium for 24 hours. The cells were washed three times with PBS and fixed in 4% paraformaldehyde at room temperature for 15 minutes. The fixed cells were then washed three times with PBS and treated with 0.5% Triton X-100 for 5 minutes. Subsequently, they were blocked with 5% bovine serum albumin in 0.3% PBS-T for 1 hour at room temperature. The cells were incubated with anti-α-SMA antibody (1:200; abcam cat #ab7817) and anti-MyoD antibody (1:200; Santa Cruz, cat #sc377460) in blocking buffer at 4° C. for 24 hours. After washing three times with PBS, the cells were incubated with Alexa Fluor secondary antibodies at room temperature for 1 hour. Nuclear DNA was stained with DAPI (4,6-diamino-2-phenylindole, 1:1,000; Sigma), washed twice with PBS, and coverslips were mounted on glass slides using a Dako fluorescence mounting medium (Dako). […] In addition, it was quantified in a blind manner using Leica Application Suite X software (Leica Microsystems). […]

O=C(C[C@H]1NCCC[C@@H]1O)Cn1cnc2cc(Br)c(Cl)cc2c1=O (racemic) [halofuginone]
number of ChAT-positive motor neurons in lumbar spinal cord, compared with changes at 120 days ([1]; 90-day-old mice (FIG. 10b)): similar | number of ChAT-positive motor neurons in lumbar spinal cord ([1]; 120-day-old mice, compared to DMSO Non-TG group (FIG. 9d)): preserved similarly | intensity of MyoD (immunofluorescence) (C2C12 cells): recovery | intensity of α-SMA (immunofluorescence) (C2C12 cells): reduction
